System: men and women with overactive bladder
Test: Phase 3 study of vibegron 75 mg vs placebo and tolterodine ER 4 mg, 12 weeks, efficacy (voiding and urine volume diary)
Assay type: in vivo, human
Conditions: for Patients with at Least 50% Reduction in Urgency Episodes, Adjusted n / Patients with at Least 50% Reduction in Urgency Episodes, Unadjusted (%) / Patients with at Least 50% Reduction in Urgency Episodes, Unadjusted n / Urgency 50% responders, Active - Placebo CMH Difference / Patients with at Least 50% Reduction in Urgency Episodes, Adjusted (%): Dry population; for Urgency Episodes, Week 12 CFB Mean: descriptive statistics; for Micturitions: LS Mean (95% CI): Table 32, week 12
Protocol: Enrollment of patients included individuals with OAB Wet (those with UUI, the involuntary loss of urine accompanied by urgency) and OAB Dry (those without UUI). A total of 1,518 patients were randomized across 215 study sites into one of three groups for a 12-week treatment period.
The study consisted of a Screening Period (1 to 5 weeks), a single-blind Run-in Period (2 weeks), a randomized double-blind Treatment Period (12 weeks), and a Follow-up Period (4 weeks).
Tolterodine ER 4 mg was the active control. […] Between the Baseline and Week 12 Visits, patients had study assessments at Week 4 and Week 8.
The Patient Voiding Diary was used by participants (via the eDiary or paper Diary) to record the frequency of daily OAB symptoms including all micturitions, urgency, incontinence, and main reason for incontinence by selecting the respective box for each symptom occurring during the course of a given day and night.
Urine volume data were collected separately by patients using the Urine Volume component of the eDiary, or the paper Urine Volume Chart. The Urine Volume Chart is a tool used in clinical practice and clinical investigation to assess voiding functions over a 24-hour period and is regarded as a useful instrument in the investigation of patients with voiding symptoms. Urine volume may be collected during any one (1) of the 7 Diary Days prior to the visit, and it should be recorded for ˜24 hours starting from the time the patient gets up for the day and continues until the time the patient gets up for the day on the next day.
For the purpose of this study, the number of micturitions was defined as the number of times a patient has voided in the toilet as indicated on the Patient Voiding Diary. Average daily micturitions were calculated using the daily entries in the Patient Voiding Diary, which was completed over the 7 days prior to each study visit. Average daily number of micturitions were calculated as the total number of micturitions that occurred on a Complete Diary Day divided by the number of Complete Diary Days in the Patient Voiding Diary. A complete diary day required confirmation by the patient in the Patient Voiding Diary that all voids and leakages had been recorded for the diary day. Baseline was defined as the average number of micturitions occurring during the last evaluable diary prior to the Baseline Visit.
The number of UUI episodes was defined as the number of times a patient had checked “urge” as the reason for accidental urine leakage. Average daily UUI episodes at each study visit were calculated in the same manner as described above for the micturition endpoint. The UUI endpoint were analyzed using only OAB Wet patients.
For the analysis of the co-primary endpoints (change from baseline in average number of daily micturitions at Week 12 and change from baseline in average number of daily urge urinary incontinence episodes at Week 12, and placebo adjustment of each), a mixed model for repeated measure (MMRM) with restricted maximum likelihood estimation was used. This model corrects for dropout and accounts for the fact that measurements taken on the same patient over time tend to be correlated by using all available information on patients within the same covariate set to derive an estimate of the treatment effect for a dropout-free population. The analysis model for each efficacy endpoint includes terms for treatment, visit, OAB Type (Wet vs Dry), Sex (Female vs Male), Region (US vs Rest of World), baseline score, and interaction of visit by treatment.
Primary inferences were drawn from treatment differences for the changes from baseline derived from the MMRM models at Week 12. As part of secondary objectives, the treatment differences for each post baseline visit were also derived using the same MMRM model. […]

[1] = No prior anticholinergic use during the prior 12 months
[2] = No prior mirabegron use during the prior 12 months
[3] = Overall, events of Events/Censored
[4] = Prior anticholinergic use during the prior 12 months
[5] = Prior mirabegron use during the prior 12 months
[6] = Week 2, events of Events/Censored
[7] = Week 4, events of Events/Censored

O=C(Nc1ccc(C[C@@H]2CC[C@H]([C@H](O)c3ccccc3)N2)cc1)[C@@H]1CCc2nccc(=O)n21 [Vibegron, (6S)-N-[4-[[(2S,5R)−5-[(R)-hydroxy(phenyl)methyl]pyrrolidin−2-yl]methyl]phenyl]−4-oxo−7,8-dihydro−6H-pyrrolo[1,2-a]pyrimidine−6-carboxamide]
Patients with at Least 50% Reduction in Urgency Episodes, Adjusted n (baseline to Week 4): 28
Patients with at Least 50% Reduction in Urgency Episodes, Unadjusted (%) (baseline to Week 4): 25.2%
Patients with at Least 50% Reduction in Urgency Episodes, Unadjusted n (baseline to Week 4): 31
Urgency 50% responders, Active - Placebo CMH Difference (baseline to Week 4): 5.4
Patients with at Least 50% Reduction in Urgency Episodes, Adjusted (%) (baseline to Week 8): 31.9%
Patients with at Least 50% Reduction in Urgency Episodes, Adjusted n (baseline to Week 8): 39
Patients with at Least 50% Reduction in Urgency Episodes, Unadjusted (%) (baseline to Week 8): 35.0%
Patients with at Least 50% Reduction in Urgency Episodes, Unadjusted n (baseline to Week 8): 43
Urgency 50% responders, Active - Placebo CMH Difference (baseline to Week 8): 12.4
Patients with at Least 50% Reduction in Urgency Episodes, Adjusted (%) (baseline to Week 12): 36.9%
Patients with at Least 50% Reduction in Urgency Episodes, Adjusted n (baseline to Week 12): 45
Patients with at Least 50% Reduction in Urgency Episodes, Unadjusted (%) (baseline to Week 12): 43.1%
Patients with at Least 50% Reduction in Urgency Episodes, Unadjusted n (baseline to Week 12): 53
Urgency 50% responders, Active - Placebo CMH Difference (baseline to Week 12): 13.9
Urgency Episodes, Week 12 CFB Mean (Males with BPH): −1.90
Urgency Episodes, Week 12 CFB Mean (Males without BPH): −2.56
Urgency Episodes, Week 12 CFB Mean (No Prior ACH Use in last 12 Mo.): −3.00
Urgency Episodes, Week 12 CFB Mean (No Prior B3 Agonist Use in last 12 Mo.): −2.94
Micturitions, 12-week change [1]: −2.1
UUI Episodes, 12-week change [1]: −2.1
Micturitions, 12-week change [2]: −2.0
UUI Episodes, 12-week change [2]: −2.0
Overall Time to First 50% Decrease in Urgency Episodes, 25th Percentile (Overall): 4.1 weeks
Overall Time to First 50% Decrease in Urgency Episodes, 50th Percentile (Overall): 12.3 weeks
Overall Time to First 50% Decrease in Urgency Episodes, Median (95% CI) (Overall): 12.3 (12.1 to 12.6) weeks
Overall Time to First 100% Decrease in UUI Episodes, 25th Percentile (Overall): 8.1, NE weeks
Overall Time to First 100% Decrease in UUI Episodes, Median (95% CI) (Overall): 13.3 (12.9 to NE) weeks
Urgency Episodes, Week 12 CFB Mean (Overall): −2.93
First 50% Decrease in Urgency Episodes, Events [3]: 256/270
First 100% Decrease in UUI Episodes, Events [3]: 146/257
Urgency Episodes, Week 12 CFB Mean (Prior ACH Use in last 12 Mo.): −2.50
Urgency Episodes, Week 12 CFB Mean (Prior B3 Agonist Use in last 12 Mo.): −2.56
Micturitions, 12-week change [4]: −1.97
UUI Episodes, 12-week change [4]: −1.46
Micturitions, 12-week change [5]: −2.83
UUI Episodes, 12-week change [5]: −1.64
Micturitions: LS Mean (95% CI) (Age <65 years): −0.2 (−0.6 to 0.2)
Micturitions: LS Mean (95% CI) (Age ≥65 years): −0.9 (−1.3 to −0.4)
Micturitions: LS Mean (95% CI) (Age ≥75 years (posthoc analysis)): −1.0 (−1.8 to −0.1)
Micturitions: LS Mean (95% CI) (Females): −0.5 (−0.8 to −0.2)
Micturitions: LS Mean (95% CI) (Males): −0.6 (−1.4 to 0.1)
Micturitions: LS Mean (95% CI) (Non-White): −0.5 (−1.2 to 0.1)
Micturitions: LS Mean (95% CI) (OAB Type: Dry): −0.7 (−1.4 to −0.1)
Micturitions: LS Mean (95% CI) (OAB Type: Wet): −0.5 (−0.8 to −0.1)
Micturitions: LS Mean (95% CI) (Overall): −0.5 (−0.8 to −0.2)
Micturitions: LS Mean (95% CI) (Region: Non-US): −0.4 (−1.4 to 0.5)
Micturitions: LS Mean (95% CI) (Region: US): −0.5 (−0.8 to −0.2)
Micturitions: LS Mean (95% CI) (White): −0.5 (−0.8 to −0.2)
Average Daily Number of Total Incontinence, Mean (SD) (Week 2): 2.53 (3.118)
Average daily number of urgency episodes, Mean (SD) (Week 2): 6.47 (4.458)
Average volume voided per micturition, Active - Placebo LS Mean Difference (Week 2): 11.9 mL
Change from Baseline in Average Daily Number of Total Incontinence, LS Mean (SE) (Week 2): −1.6 (0.14)
Change from baseline in average daily number of urgency episodes, LS Mean (Week 2): −1.5
Change from baseline in average volume voided per micturition, LS Mean (SE) (Week 2): 14.2 (3.02) mL
Estimated Incidence of Subjects with 50% Decrease from Baseline (urgency episodes) (Week 2): 19.6
Estimated Incidence of Subjects with 100% Decrease from Baseline (UUI episodes) (Week 2): 7.4
Total Incontinence, Active - Placebo LS Mean Difference (SE) (Week 2): −0.7 (0.14)
Urgency episodes, Active - Placebo LS Mean Difference (Week 2): −0.6
First 50% Reduction in Urgency Episodes, Events [6]: 103/423
First 100% Reduction in UUI Episodes, Events [6]: 30/373
Average volume voided per micturition, Week 2 Mean (SD) (Week 2, vibegron 75 mg, tolterodine ER 4 mg): 165.6 (74.26) mL
Average Daily Number of Total Incontinence, Mean (SD) (Week 4): 2.28 (3.239)
Average daily number of urgency episodes, Mean (SD) (Week 4): 6.02 (4.458)
Average volume voided per micturition, Active - Placebo LS Mean Difference (Week 4): 14.5 mL
Average volume voided per micturition, Week 4 Mean (SD) (Week 4): 172.6 (76.57) mL
Change from Baseline in Average Daily Number of Total Incontinence, LS Mean (SE) (Week 4): −1.9 (0.14)
Change from baseline in average daily number of urgency episodes, LS Mean (Week 4): −1.9
Change from baseline in average volume voided per micturition, LS Mean (SE) (Week 4): 18.9 (3.15) mL
Estimated Incidence of Subjects with 50% Decrease from Baseline (urgency episodes) (Week 4): 21.1
Estimated Incidence of Subjects with 100% Decrease from Baseline (UUI episodes) (Week 4): 9.2
Total Incontinence, Active - Placebo LS Mean Difference (SE) (Week 4): −0.8 (0.14)
Urgency episodes, Active - Placebo LS Mean Difference (Week 4): −0.8
First 50% Reduction in Urgency Episodes, Events [7]: 111/415
First 100% Reduction in UUI Episodes, Events [7]: 37/366
Average Daily Number of Total Incontinence, Mean (SD) (Week 8): 2.05 (3.245)
Average daily number of urgency episodes, Mean (SD) (Week 8): 5.58 (4.399)
Average volume voided per micturition, Active - Placebo LS Mean Difference (Week 8): 18.3 mL
Average volume voided per micturition, Week 8 Mean (SD) (Week 8): 173.4 (81.95) mL
Change from Baseline in Average Daily Number of Total Incontinence, LS Mean (SE) (Week 8): −2.1 (0.15)
Change from baseline in average daily number of urgency episodes, LS Mean (Week 8): −2.4
